# Experiments:
# Settings in all cases: read-out: % Enzyme Activity (relative to DMSO control), 10 uM
# Haspin = Haspin (Homo sapiens, UniProt Q8TF76); assay: HotSpot kinase assay
# YSK4/MAP3K19 = YSK4/MAP3K19 (Homo sapiens, UniProt Q56UN5); assay: HotSpot kinase assay
# Description: (§1) Additionally, a 10-dose dilution series of staurosporine and other enzyme-appropriate compounds were included as positive control inhibitors.
# p70S6K/RPS6KB1 = p70S6K/RPS6KB1 (Homo sapiens, UniProt P23443); assay: HotSpot kinase assay
# TYK1/LTK = TYK1/LTK (Homo sapiens, UniProt P29376); assay: HotSpot kinase assay
# GLK/MAP4K3 = GLK/MAP4K3 (Homo sapiens, UniProt Q8IVH8); assay: HotSpot kinase assay
# TESK1 = TESK1 (Homo sapiens, UniProt Q15569); assay: HotSpot kinase assay
# TESK1, sequence (Q15569 whole entry): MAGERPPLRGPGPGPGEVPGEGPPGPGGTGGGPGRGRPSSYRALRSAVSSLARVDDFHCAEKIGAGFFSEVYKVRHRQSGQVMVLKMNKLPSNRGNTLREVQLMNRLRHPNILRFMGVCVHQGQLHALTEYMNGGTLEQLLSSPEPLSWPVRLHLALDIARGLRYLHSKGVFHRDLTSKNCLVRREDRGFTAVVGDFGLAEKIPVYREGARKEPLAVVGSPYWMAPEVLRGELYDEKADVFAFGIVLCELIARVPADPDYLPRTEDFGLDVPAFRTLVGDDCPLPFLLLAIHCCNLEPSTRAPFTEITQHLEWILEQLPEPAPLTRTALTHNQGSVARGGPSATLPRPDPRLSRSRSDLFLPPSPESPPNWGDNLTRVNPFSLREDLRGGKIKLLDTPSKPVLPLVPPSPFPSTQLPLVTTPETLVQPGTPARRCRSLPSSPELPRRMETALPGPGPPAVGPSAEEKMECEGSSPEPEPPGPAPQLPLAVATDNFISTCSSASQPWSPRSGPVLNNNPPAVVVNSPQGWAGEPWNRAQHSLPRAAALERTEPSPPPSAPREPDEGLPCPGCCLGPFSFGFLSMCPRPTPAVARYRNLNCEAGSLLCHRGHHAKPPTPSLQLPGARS
# Description: as §1
# ERN2/IRE2 = ERN2/IRE2 (Homo sapiens, UniProt Q76MJ5); assay: HotSpot kinase assay
# Description: as §1
# CAMK1d = CAMK1d (Homo sapiens, UniProt Q8IU85); assay: HotSpot kinase assay
# Description: as §1
# MAST3 = MAST3 (Homo sapiens, UniProt O60307); assay: HotSpot kinase assay
# Description: as §1
# AMPK (A1/B2/G3) = AMPK (A1/B2/G3) (Homo sapiens, UniProt Q13131); assay: HotSpot kinase assay
# HIPK1 = HIPK1 (Homo sapiens, UniProt Q86Z02); assay: HotSpot kinase assay
# Description: as §1
# PLK1 = PLK1 (Homo sapiens, UniProt P53350); assay: HotSpot kinase assay
# PKCd = PKCd (Homo sapiens, UniProt Q05655); assay: HotSpot kinase assay
# WEE1 = WEE1 (Homo sapiens, UniProt P30291); assay: HotSpot kinase assay
# Description: as §1
# PHKg2 = PHKg2 (Homo sapiens, UniProt P15735); assay: HotSpot kinase assay
# Description: as §1
# ERBB4/HER4 = ERBB4/HER4 (Homo sapiens, UniProt Q15303); assay: HotSpot kinase assay
# ERBB4/HER4, sequence (Q15303 26-1308): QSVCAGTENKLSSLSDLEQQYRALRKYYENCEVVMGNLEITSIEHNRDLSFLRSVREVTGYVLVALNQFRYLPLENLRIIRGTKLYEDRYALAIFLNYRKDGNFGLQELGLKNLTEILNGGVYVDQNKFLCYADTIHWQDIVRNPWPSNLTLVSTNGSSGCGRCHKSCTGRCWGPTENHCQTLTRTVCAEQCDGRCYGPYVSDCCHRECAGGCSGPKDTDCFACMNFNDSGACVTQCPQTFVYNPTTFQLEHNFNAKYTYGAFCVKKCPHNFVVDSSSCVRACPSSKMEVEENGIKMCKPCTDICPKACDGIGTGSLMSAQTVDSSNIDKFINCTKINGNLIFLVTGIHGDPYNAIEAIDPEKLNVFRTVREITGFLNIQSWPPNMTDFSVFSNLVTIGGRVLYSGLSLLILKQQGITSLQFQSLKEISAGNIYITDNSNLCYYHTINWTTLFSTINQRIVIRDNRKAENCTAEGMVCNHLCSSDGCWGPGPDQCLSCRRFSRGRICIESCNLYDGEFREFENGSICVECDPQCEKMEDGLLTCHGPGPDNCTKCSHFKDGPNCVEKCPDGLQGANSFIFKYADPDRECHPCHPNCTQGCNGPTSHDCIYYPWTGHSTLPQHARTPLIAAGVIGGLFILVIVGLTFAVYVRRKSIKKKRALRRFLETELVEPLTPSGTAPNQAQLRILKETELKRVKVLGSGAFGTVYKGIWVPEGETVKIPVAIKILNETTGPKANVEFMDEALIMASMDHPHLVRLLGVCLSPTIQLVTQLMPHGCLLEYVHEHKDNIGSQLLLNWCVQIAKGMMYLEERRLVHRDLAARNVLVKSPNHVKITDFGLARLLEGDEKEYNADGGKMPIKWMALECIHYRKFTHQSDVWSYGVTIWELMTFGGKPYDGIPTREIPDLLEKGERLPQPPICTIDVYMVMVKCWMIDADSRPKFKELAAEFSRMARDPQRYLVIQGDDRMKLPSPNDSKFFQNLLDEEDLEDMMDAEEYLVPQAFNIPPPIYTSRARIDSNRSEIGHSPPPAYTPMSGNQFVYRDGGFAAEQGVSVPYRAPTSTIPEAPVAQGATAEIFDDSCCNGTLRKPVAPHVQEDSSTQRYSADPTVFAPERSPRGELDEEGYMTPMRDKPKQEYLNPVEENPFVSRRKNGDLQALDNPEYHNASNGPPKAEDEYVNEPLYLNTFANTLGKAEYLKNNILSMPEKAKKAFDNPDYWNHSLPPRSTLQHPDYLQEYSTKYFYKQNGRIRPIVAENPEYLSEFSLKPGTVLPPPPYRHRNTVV
# Description: as §1
# MYLK4 = MYLK4 (Homo sapiens, UniProt Q86YV6); assay: HotSpot kinase assay
# MYLK4, sequence (Q86YV6 whole entry): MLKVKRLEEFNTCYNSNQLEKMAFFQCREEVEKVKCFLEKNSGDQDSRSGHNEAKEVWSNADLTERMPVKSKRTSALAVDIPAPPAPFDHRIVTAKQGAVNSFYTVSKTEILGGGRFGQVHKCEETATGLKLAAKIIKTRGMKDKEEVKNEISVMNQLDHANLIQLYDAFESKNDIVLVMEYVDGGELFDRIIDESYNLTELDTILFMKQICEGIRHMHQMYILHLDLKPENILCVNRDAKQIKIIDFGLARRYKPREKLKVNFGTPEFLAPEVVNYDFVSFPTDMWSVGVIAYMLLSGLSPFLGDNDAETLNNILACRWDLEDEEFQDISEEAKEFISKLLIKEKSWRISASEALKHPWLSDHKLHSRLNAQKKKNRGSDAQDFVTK
# Description: as §1
# FLT1/VEGFR1 = FLT1/VEGFR1 (Homo sapiens, UniProt P17948); assay: HotSpot kinase assay
# Description: as §1
# FMS = FMS (Homo sapiens, UniProt P07333); assay: HotSpot kinase assay
# Description: as §1
# p70S6Kb/RPS6KB2 = p70S6Kb/RPS6KB2 (Homo sapiens, UniProt Q9UBS0); assay: HotSpot kinase assay
# CDK16/cyclin Y (PCTAIRE) = CDK16/cyclin Y (PCTAIRE) (Homo sapiens, UniProt Q00536); assay: biochemical
# Description: as §1
# DNA-PK = DNA-PK (Homo sapiens, UniProt P78527); assay: HotSpot kinase assay
# Description: as §1
# AMPK(A1/B1/G2) = AMPK(A1/B1/G2) (Homo sapiens, UniProt Q13131); assay: HotSpot kinase assay
# Description: as §1
# IR = IR (Homo sapiens, UniProt P06213); assay: HotSpot kinase assay
# Description: as §1
# GRK1 = GRK1 (Homo sapiens, UniProt Q15835); assay: HotSpot kinase assay
# GRK1, sequence (Q15835 whole entry): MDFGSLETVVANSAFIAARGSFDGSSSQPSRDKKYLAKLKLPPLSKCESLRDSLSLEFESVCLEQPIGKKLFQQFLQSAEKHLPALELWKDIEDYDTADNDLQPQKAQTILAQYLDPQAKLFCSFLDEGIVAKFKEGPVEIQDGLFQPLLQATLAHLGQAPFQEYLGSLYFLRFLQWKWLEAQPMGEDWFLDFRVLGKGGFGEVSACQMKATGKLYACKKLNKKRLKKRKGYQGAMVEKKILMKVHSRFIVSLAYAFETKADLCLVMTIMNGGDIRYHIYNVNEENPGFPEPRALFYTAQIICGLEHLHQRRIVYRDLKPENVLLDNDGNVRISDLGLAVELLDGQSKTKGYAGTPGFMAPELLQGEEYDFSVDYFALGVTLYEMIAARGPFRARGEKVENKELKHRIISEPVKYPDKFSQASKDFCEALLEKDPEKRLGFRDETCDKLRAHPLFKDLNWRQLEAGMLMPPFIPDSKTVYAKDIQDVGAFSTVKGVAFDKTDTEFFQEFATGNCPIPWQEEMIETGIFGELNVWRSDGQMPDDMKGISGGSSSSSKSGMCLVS
# Description: as §1
# DYRK1/DYRK1A = DYRK1/DYRK1A (Homo sapiens, UniProt Q13627); assay: HotSpot kinase assay
# GRK5 = GRK5 (Homo sapiens, UniProt P34947); assay: HotSpot kinase assay
# MASTL = MASTL (Homo sapiens, UniProt Q96GX5); assay: HotSpot kinase assay
# Description: as §1
# MINK/MINK1 = MINK/MINK1 (Homo sapiens, UniProt Q8N4C8); assay: HotSpot kinase assay
# Description: as §1
# NEK1 = NEK1 (Homo sapiens, UniProt Q96PY6); assay: HotSpot kinase assay
# Description: as §1
# LOK/STK10 = LOK/STK10 (Homo sapiens, UniProt O94804); assay: HotSpot kinase assay
# Description: as §1
# ERBB2/HER2 = ERBB2/HER2 (Homo sapiens, UniProt P04626); assay: HotSpot kinase assay
# Description: as §1
# EGFR = EGFR (Homo sapiens, UniProt P00533); assay: HotSpot kinase assay
# Description: as §1
# ERN1/IRE1 = ERN1/IRE1 (Homo sapiens, UniProt O75460); assay: HotSpot kinase assay
# ERN1/IRE1, sequence (O75460 19-977): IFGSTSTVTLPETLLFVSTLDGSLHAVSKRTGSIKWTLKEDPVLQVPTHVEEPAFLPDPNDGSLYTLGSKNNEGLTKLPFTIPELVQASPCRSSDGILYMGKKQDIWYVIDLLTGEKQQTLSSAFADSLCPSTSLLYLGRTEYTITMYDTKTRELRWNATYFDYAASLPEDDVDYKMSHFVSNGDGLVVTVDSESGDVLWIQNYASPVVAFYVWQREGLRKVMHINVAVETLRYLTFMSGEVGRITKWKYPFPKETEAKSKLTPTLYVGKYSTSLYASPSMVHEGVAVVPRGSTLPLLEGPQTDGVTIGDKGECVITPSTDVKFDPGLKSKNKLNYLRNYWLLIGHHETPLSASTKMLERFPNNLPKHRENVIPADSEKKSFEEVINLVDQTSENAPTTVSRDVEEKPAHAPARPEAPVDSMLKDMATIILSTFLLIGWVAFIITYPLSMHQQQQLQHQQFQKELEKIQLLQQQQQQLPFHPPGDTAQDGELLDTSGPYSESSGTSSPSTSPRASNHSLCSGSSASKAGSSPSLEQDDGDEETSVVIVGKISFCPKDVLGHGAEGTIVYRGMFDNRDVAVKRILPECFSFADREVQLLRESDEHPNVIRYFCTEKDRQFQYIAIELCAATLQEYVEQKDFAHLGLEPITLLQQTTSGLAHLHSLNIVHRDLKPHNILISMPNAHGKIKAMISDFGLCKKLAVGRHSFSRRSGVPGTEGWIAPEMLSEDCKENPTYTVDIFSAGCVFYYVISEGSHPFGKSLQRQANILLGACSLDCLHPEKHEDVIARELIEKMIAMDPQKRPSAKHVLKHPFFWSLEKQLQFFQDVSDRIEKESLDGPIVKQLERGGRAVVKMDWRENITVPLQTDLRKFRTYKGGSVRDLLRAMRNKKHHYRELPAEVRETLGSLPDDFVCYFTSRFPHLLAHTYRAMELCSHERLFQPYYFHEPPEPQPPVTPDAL
# Description: as §1
# PDK1/PDPK1 = PDK1/PDPK1 (Homo sapiens, UniProt O15530); assay: HotSpot kinase assay
# CDK14/cyclin Y (PFTK1) = CDK14/cyclin Y (PFTK1) (Homo sapiens, UniProt O94921); assay: HotSpot kinase assay
# Description: as §1
# MEKK1 = MEKK1 (Homo sapiens, UniProt Q13233); assay: HotSpot kinase assay
# NLK = NLK (Homo sapiens, UniProt Q9UBE8); assay: HotSpot kinase assay
# Description: as §1
# PKCb1 = PKCb1 (Homo sapiens, UniProt P05771); assay: HotSpot kinase assay
# PKCb1, sequence (P05771 whole entry): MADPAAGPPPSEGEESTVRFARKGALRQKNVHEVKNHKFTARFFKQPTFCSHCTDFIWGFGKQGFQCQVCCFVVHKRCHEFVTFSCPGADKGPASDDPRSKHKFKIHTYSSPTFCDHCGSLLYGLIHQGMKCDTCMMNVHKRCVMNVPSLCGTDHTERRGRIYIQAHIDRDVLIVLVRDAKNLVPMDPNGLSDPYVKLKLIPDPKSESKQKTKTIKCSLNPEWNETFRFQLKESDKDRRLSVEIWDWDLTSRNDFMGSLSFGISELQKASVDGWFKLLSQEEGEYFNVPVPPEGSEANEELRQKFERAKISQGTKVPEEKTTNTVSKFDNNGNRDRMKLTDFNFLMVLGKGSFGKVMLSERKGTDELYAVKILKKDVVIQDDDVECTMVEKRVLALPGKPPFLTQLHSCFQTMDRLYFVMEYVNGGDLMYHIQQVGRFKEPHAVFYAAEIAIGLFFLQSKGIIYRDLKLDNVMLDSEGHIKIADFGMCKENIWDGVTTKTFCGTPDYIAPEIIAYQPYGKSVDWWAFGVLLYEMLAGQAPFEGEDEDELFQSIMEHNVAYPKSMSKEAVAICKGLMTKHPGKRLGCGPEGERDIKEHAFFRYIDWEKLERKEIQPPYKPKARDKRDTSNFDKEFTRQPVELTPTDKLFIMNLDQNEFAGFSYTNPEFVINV
# Description: as §1
# p70S6K/RPS6KB1, sequence (P23443 whole entry): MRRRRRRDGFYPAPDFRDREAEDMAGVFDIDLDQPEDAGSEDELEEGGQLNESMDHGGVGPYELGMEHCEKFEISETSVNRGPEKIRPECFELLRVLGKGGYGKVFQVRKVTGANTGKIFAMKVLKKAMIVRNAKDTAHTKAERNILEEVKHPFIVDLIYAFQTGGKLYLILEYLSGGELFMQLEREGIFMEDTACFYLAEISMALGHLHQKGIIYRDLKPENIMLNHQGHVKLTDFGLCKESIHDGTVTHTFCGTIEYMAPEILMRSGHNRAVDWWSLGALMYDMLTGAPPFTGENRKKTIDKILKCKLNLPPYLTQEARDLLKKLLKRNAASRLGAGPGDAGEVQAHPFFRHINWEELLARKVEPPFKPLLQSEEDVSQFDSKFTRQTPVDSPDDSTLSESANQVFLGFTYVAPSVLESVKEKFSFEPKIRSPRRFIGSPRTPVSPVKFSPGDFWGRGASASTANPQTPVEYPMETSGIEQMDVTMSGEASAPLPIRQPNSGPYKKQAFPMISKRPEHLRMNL
smiles,measurement,setting,value
C#C[C@@](C)(c1ccc(Cl)cc1)c1csc(NC(=O)c2c(F)cc(N3CCNCC3)cc2F)n1 (stereo in doubt) [DF-003],remaining activity at 10 µM,Haspin,85.7%
same,remaining activity at 10 µM,YSK4/MAP3K19,100%
same,remaining activity at 10 µM,p70S6K/RPS6KB1,69.6%
same,remaining activity at 10 µM,TYK1/LTK,105%
same,remaining activity at 10 µM,GLK/MAP4K3,77.3%
same,remaining activity at 10 µM,TESK1,82.9%
same,remaining activity at 10 µM,ERN2/IRE2,62.1%
same,remaining activity at 10 µM,CAMK1d,39.1%
same,remaining activity at 10 µM,MAST3,82.3%
same,remaining activity at 10 µM,AMPK (A1/B2/G3),82.6%
same,remaining activity at 10 µM,HIPK1,104%
same,remaining activity at 10 µM,PLK1,114%
same,remaining activity at 10 µM,PKCd,69.8%
same,remaining activity at 10 µM,WEE1,125%
same,remaining activity at 10 µM,PHKg2,74.2%
same,remaining activity at 10 µM,ERBB4/HER4,121%
same,remaining activity at 10 µM,MYLK4,87.1%
same,remaining activity at 10 µM,FLT1/VEGFR1,79.2%
same,remaining activity at 10 µM,FMS,75.7%
same,remaining activity at 10 µM,p70S6Kb/RPS6KB2,58.1%
same,remaining activity at 10 µM,CDK16/cyclin Y (PCTAIRE),91.8%
same,remaining activity at 10 µM,DNA-PK,85.3%
same,remaining activity at 10 µM,AMPK(A1/B1/G2),114%
same,remaining activity at 10 µM,IR,104%
same,remaining activity at 10 µM,GRK1,99.3%
same,remaining activity at 10 µM,DYRK1/DYRK1A,98.5%
same,remaining activity at 10 µM,GRK5,117%
same,remaining activity at 10 µM,MASTL,90.6%
same,remaining activity at 10 µM,MINK/MINK1,98.7%
same,remaining activity at 10 µM,NEK1,106%
same,remaining activity at 10 µM,LOK/STK10,62.4%
same,remaining activity at 10 µM,ERBB2/HER2,95.9%
same,remaining activity at 10 µM,EGFR,93.7%
same,remaining activity at 10 µM,ERN1/IRE1,93.8%
same,remaining activity at 10 µM,PDK1/PDPK1,174%
same,remaining activity at 10 µM,CDK14/cyclin Y (PFTK1),98.8%
same,remaining activity at 10 µM,MEKK1,99.9%
same,remaining activity at 10 µM,NLK,99.5%
same,remaining activity at 10 µM,PKCb1,91.2%

# Source: PMC12420824, “Discovery of a selective alpha-kinase 1 inhibitor for the rare genetic disease ROSAH syndrome” (Nature Communications, 2025)
